Nine compounds from ChEMBL document CHEMBL4364244, “New insights into the biological activities of Chrysanthemum morifolium: Natural flavonoids alleviate diabetes by targeting α-glucosidase and the PTP-1B signaling pathway” (Eur J Med Chem, 2019) can be followed below.

Active and inactive are the calls of the source. The calls are words filed in the database; no cut-off is given here.

For test [1], the system named is HepG2. The test is described as follows: Increase in glucose consumption in human HepG2 cells assessed as glucose concentration in the medium treated at 0.4 to 10 uM after incubating cells in the medium containing glucose measured after 24 hrs by glucose oxidase method. Type of test: functional, cell-based.
The species entered for test [2] is Cricetulus griseus. The test is described as follows: Inhibition of PTP1B in CHOK1 cells assessed as increase in phosphorylation of AKT at Ser473 residue at 20 uM measured after 48 hrs by Western blot analysis. Type of test: cell-based.
The species entered for test [3] is Cricetulus griseus. The test is described as follows: Inhibition of PTP1B in CHOK1 cells assessed as increase in phosphorylation of GSK-3beta at Ser9 residue at 20 uM measured after 48 hrs by Western blot analysis. Type of test: cell-based.
In test [4] the target is T1, Tyrosine-protein phosphatase non-receptor type 1 (Homo sapiens) (UniProt P18031).
T1 sequence (whole entry): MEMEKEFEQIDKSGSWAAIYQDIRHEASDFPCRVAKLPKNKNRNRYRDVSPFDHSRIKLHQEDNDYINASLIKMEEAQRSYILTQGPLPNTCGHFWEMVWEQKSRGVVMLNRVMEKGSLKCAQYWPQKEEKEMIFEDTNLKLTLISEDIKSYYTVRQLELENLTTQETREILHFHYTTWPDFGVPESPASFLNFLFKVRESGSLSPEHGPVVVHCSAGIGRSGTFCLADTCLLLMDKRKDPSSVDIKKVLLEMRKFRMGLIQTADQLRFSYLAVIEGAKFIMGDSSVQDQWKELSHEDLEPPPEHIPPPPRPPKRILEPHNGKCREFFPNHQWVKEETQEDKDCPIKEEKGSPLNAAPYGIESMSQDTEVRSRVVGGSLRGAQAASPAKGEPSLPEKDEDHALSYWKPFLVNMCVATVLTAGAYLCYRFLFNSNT
Briefly: Inhibition of human recombinant full length PTP1B expressed in Escherichia coli cells at 1 uM using pNPP as substrate preincubated with enzyme for 5 mins followed by incubation with substrate for 10 mins by spectrophotometry analysis relative to control.

Test [5] has as its target T1, Tyrosine-protein phosphatase non-receptor type 1 (Homo sapiens). Briefly: Inhibition of human recombinant full length PTP1B expressed in Escherichia coli cells at 5 uM using pNPP as substrate preincubated with enzyme for 5 mins followed by incubation with substrate for 10 mins by spectrophotometry analysis relative to control.
For test [6] the target is unchanged. The test is described as follows: Inhibition of human recombinant full length PTP1B expressed in Escherichia coli cells at 10 uM using pNPP as substrate preincubated with enzyme for 5 mins followed by incubation with substrate for 10 mins by spectrophotometry analysis relative to control.
The subject of test [7] is INS1. Briefly: Increase in insulin secretion in high glucose-treated rat INS-1 cells preincubated with compound and 40 mM glucose for 48 hrs followed by stimulation with KRB buffer containing 5 to 30 mM glucose for 60 mins and measured by ELISA. Format: functional, cell-based. Background: ELISA stands for enzyme-linked immunosorbent assay.
The nature of test [8]: Inhibition of baker's yeast alpha-glucosidase using p-nitrophenyl alpha-D-glucopyranoside as substrate measured after 30 mins by spectrophotometry analysis. Also on record: species or system Saccharomyces cerevisiae.
Test [9] deals with Mus musculus. The test is described as follows: Antidiabetic activity in STZ-induced type-2 diabetes Kunming mouse model assessed as decrease in fasting blood glucose level at 50 to 100 mg/kg, po administered for 4 weeks by glucometric analysis. Format: functional, organism-based.
Test [10] relates to Mus musculus. Briefly: Antidiabetic activity in STZ-induced type-2 diabetes Kunming mouse model assessed as decrease in blood glucose AUC at 50 to 100 mg/kg, po administered for 4 weeks by glucometric analysis. Format: functional, organism-based.
Test [11] deals with Mus musculus. Briefly: Antidiabetic activity in STZ-induced type-2 diabetes Kunming mouse model assessed as increase in glucose tolerance at 50 to 100 mg/kg, po for 13 days followed by overnight fasting and later orally treated with glucose for 60 mins and measured after 120 mins by OGTT. Format: functional, organism-based.
For test [12], the system named is Mus musculus. The test is described as follows: Antihyperlipidemic activity in STZ-induced type-2 diabetes Kunming mouse model assessed as decrease in serum total cholesterol level at 100 mg/kg, po for 4 weeks relative to diabetic control. Type of test: functional. The following applies: 672 h.
The test system of test [13] is Mus musculus. The test is described as follows: Antihyperlipidemic activity in STZ-induced type-2 diabetes Kunming mouse model assessed as decrease in serum triglyceride level at 50 mg/kg, po for 4 weeks relative to diabetic control. Type of test: functional. The settings on record: 672 h.
Test [14] deals with Mus musculus. Briefly: Antihyperlipidemic activity in STZ-induced type-2 diabetes Kunming mouse model assessed as decrease in serum triglyceride level at 100 mg/kg, po for 4 weeks relative to diabetic control. Type of test: functional. The following applies: 672 h.
Test [15] deals with Mus musculus. The test is described as follows: Antihyperlipidemic activity in STZ-induced type-2 diabetes Kunming mouse model assessed as serum total cholesterol level at 50 mg/kg, po for 4 weeks (reference value: 9.75 +/-0.11 mM). Type of test: functional.
Test [16] concerns Mus musculus. The test is described as follows: Antihyperlipidemic activity in STZ-induced type-2 diabetes Kunming mouse model assessed as serum total cholesterol level at 100 mg/kg, po for 4 weeks (reference value: 9.75 +/-0.11 mM). Type of test: functional.
The subject of test [17] is Mus musculus. Briefly: Antihyperlipidemic activity in STZ-induced type-2 diabetes Kunming mouse model assessed as serum triglyceride level at 50 mg/kg, po for 4 weeks (reference value: 3.08 +/- 0.84 mM). Format: functional.
Test [18] deals with Mus musculus. The test is described as follows: Antihyperlipidemic activity in STZ-induced type-2 diabetes Kunming mouse model assessed as serum triglyceride level at 100 mg/kg, po for 4 weeks (reference value: 3.08 +/- 0.84 mM). Format: functional.
Test [19] has as its system Mus musculus. The test is described as follows: Antidiabetic activity in STZ-induced type-2 diabetes Kunming mouse model assessed as decrease in blood glucose AUC at 50 mg/kg, po for 14 days followed by overnight fasting and later orally treated with maltose for 60 mins and measured after 120 mins by OMTT. Type of test: functional.
In test [20] the test system is Mus musculus. Briefly: Antidiabetic activity in STZ-induced type-2 diabetes Kunming mouse model assessed as decrease in blood glucose AUC at 100 mg/kg, po for 14 days followed by overnight fasting and later orally treated with maltose for 60 mins and measured after 120 mins by OMTT. Type of test: functional.
In the next test the test system is CHO-K1. The test is described as follows: Decrease in PTP1B protein expression in CHOK1 cells at 20 uM measured after 48 hrs by Western blot analysis. Format: functional, cell-based. The following applies: Cricetulus griseus.
Test [21] relates to Mus musculus. The test is described as follows: Antidiabetic activity in STZ-induced type-2 diabetes Kunming mouse model assessed as decrease in postprandial glucose level at 50 mg/kg, po for 2 hrs by glucometer analysis. Type of test: functional, organism-based.
Test [22] deals with INS1. Briefly: Increase in insulin secretion in high glucose-treated rat INS-1 cells at 0.15 uM preincubated with compound and 40 mM glucose for 48 hrs followed by stimulation with KRB buffer containing 5 to 30 mM glucose for 60 mins and measured by ELISA. Type of test: functional, cell-based.
Test [23] relates to Mus musculus. The test is described as follows: Antihyperlipidemic activity in STZ-induced type-2 diabetes Kunming mouse model assessed as decrease in serum total cholesterol level at 50 mg/kg, po for 4 weeks relative to diabetic control. Type of test: functional. The settings on record: 672 h.
For test [24], the system named is HepG2. The test is described as follows: Increase in glucose consumption in human HepG2 cells assessed as glucose concentration in the medium treated at 500 uM after incubating cells in the medium containing glucose measured after 24 hrs by glucose oxidase method. Format: functional, cell-based.

The term inhibition denotes how much of the control response was suppressed. As a reminder, the IC50 is the point on the concentration scale where inhibition reaches its midpoint. Usually inhibition in vivo stands for how much of the control response was suppressed. For `COc1ccc(-c2cc(=O)c3c(O)cc(O[C@@H]4O[C@H](CO[C@@H]5O[C@@H](C)[C@H](O)[C@@H](O)[C@H]5O)[C@@H](O)[C@H](O)[C@H]4O)cc3o2)cc1O` [DIOSMIN], the result in the test on HepG2 [1], in the test filed under Cricetulus griseus [2], in the test filed under Cricetulus griseus [3] and in the test on Mus musculus [11] was Active. For the same compound, the inhibition in test [4] was 36.3%; in test [5] it was 32.8%; in [6], 30.5%. The Activity entry in the test with INS1 [7] is “Dose-dependent effect”; in the test on Mus musculus [15] it was 9.18 mM; with Mus musculus [16], 8.94 mM; in the test with Mus musculus [17], 2.04 mM; in the test on Mus musculus [18] it was 2.24 mM. This compound also came in with an IC50 in test [8] of over 100 µM. Moreover, the inhibition entry with Mus musculus [9], in the test with Mus musculus [10], in the test with CHO-K1 and with Mus musculus [21] was “Active” each time. Also, the values for the inhibition in vivo at 100 mg/kg in the test with Mus musculus [12], in the test with Mus musculus [14] and in the test on Mus musculus [20] were 8.3%, 27.3% and 13.5%, respectively. Also, the inhibition in vivo at 50 mg/kg in the test on Mus musculus [13] came out at 33.8%; with Mus musculus [19], 11.2%.

As to `COc1ccc(-c2cc(=O)c3c(O)cc(O)cc3o2)cc1O`, the outcome in the test on HepG2 [1], in the test filed under Cricetulus griseus [2] and in the test filed under Cricetulus griseus [3] was Active. The inhibition in [4] came to 22.8%; in test [5] it was 27.1%; in test [6], 28.3%. In addition, the inhibition entry with CHO-K1 was “Active”.

Regarding `COc1ccc(-c2cc(=O)c3c(O)cc(O[C@@H]4O[C@H](CO)[C@@H](O)[C@H](O)[C@H]4O)cc3o2)cc1O`, the outcome with HepG2 [1], in the test listed under Cricetulus griseus [2] and in the test listed under Cricetulus griseus [3] was Active. Besides, the inhibition in test [4] is 27.7%; in test [5], 23.4%; in test [6], 29.8%. In addition, the Activity result with INS1 [7] is “Dose-dependent effect”. The same compound had an IC50 in test [8] of over 100 µM. For the same compound, the inhibition result with CHO-K1 is “Active”.

Turning to `COc1ccc(Cl)cc1C(=O)NCCc1ccc(S(=O)(=O)NC(=O)NC2CCCCC2)cc1`, the outcome in the test on INS1 [22] was Active.

Consider `O=c1cc(-c2ccc(O)cc2)oc2cc(O)cc(O)c12` [APIGENIN], for which the outcome in the test on HepG2 [1], in the test filed under Cricetulus griseus [2], in the test filed under Cricetulus griseus [3] and with Mus musculus [11] was Active. Moreover, the inhibition stood at 29.8% in test [4], 20.2% in test [5] and 39.2% in test [6]. In test [8], this compound displayed an IC50 of 9.04 µM. The inhibition result with Mus musculus [9], in the test on Mus musculus [10], with CHO-K1 and in the test on Mus musculus [21] was “Active” each time. Moreover, the inhibition in vivo at 100 mg/kg with Mus musculus [12] was found to be 15.7%. For the same compound, the inhibition in vivo at 50 mg/kg in the test on Mus musculus [23] came to 22.1%. Also, the Activity is listed as 7.6 mM in the test on Mus musculus [15], 8.22 mM in the test with Mus musculus [16], 3.13 mM in the test with Mus musculus [17] and 3.06 mM in the test with Mus musculus [18].

Consider `CN(C)C(=N)NC(=N)N`, for which the result in the test on HepG2 [24] was Active.

As for `C[C@H]1O[C@H](O[C@H]2[C@H](O)[C@@H](O)[C@@H](O[C@H]3[C@H](O)[C@@H](O)C(O)O[C@@H]3CO)O[C@@H]2CO)[C@H](O)[C@@H](O)[C@@H]1N[C@H]1C=C(CO)[C@@H](O)[C@H](O)[C@H]1O` (some centres not stated) [ACARBOSE], the IC50 in [8] came out at 236 µM. In addition, the Activity with Mus musculus [15] was 9.61 mM; with Mus musculus [17], 3.02 mM.

On to `COc1ccc(-c2cc(=O)c3c(O)cc(O)cc3o2)cc1` [ACACETIN], for which the outcome in the test on HepG2 [1], in the test listed under Cricetulus griseus [2] and in the test listed under Cricetulus griseus [3] was Active. The inhibition in test [4] amounted to 38.2%; in test [5] it was 36.3%; in test [6], 32%. Besides, the IC50 in test [8] is over 100 µM. The inhibition entry in the test on CHO-K1 is “Active”.

For the compound `O=c1cc(-c2ccc(O)c(O)c2)oc2cc(O)cc(O)c12` [LUTEOLIN], the outcome in the test on HepG2 [1], in the test filed under Cricetulus griseus [2] and in the test listed under Cricetulus griseus [3] was Active. The inhibition stood at 19.8% in test [4], 40.8% in test [5] and 39.9% in test [6]. In test [8], this compound came in with an IC50 of 16.6 µM. Moreover, in the test on CHO-K1, the inhibition result is “Active”.
